Values after ≈ are worked out from the molar mass of the structure shown.
Tests used:
Assay in all cases: in vitro antibacterial MIC, agar plate dilution
Assay type in all cases: cell-based
[1] = tested on: Staphylococcus aureus VGH 84-46; details: Staphylococcus aureus, VGH8446, 18 h, 35° C., read-out: MIC
Summary of the method: (§1)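 Agar plate dilution on Mueller-Hinton agar, inoculum about 10^4 CFU per spot applied with a Steers replicator. MIC (mcg/ml) is the lowest compound concentration preventing visible growth after 18 h at 35 °C.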

[2] = tested on: Streptococcus faecalis ATTC 29212; details: Enterococcus faecalis, ATTC29212, 18 hours, 35° C., read-out: MIC
Summary of the method: as §1

[3] = tested on: Proteus rettgeri CMC 84-41; details: Providencia rettgeri, CMC8441, 18 h, 35° C., read-out: MIC
Summary of the method: as §1

[4] = tested on: Morganella morganii VGH 84-11; details: VGH8411, 18 hours, 35° C., read-out: MIC
Summary of the method: as §1

[5] = tested on: Klebsiella pneumoniae MOR 84-4; details: Klebsiella pneumoniae, MOR844, 18 h, 35° C., read-out: MIC
Summary of the method: as §1

[6] = tested on: Morganella morganii CMC 84-37; details: Morganella morganii, CMC8437, 18 h, 35° C., read-out: MIC
Summary of the method: as §1

[7] = tested on: Serratia marcescens K 84-18; details: Serratia marcescens, K8418, 18 h, 35° C., read-out: MIC
Summary of the method: as §1

[8] = tested on: Enterobacter cloacae K 84-10; details: Enterobacter cloacae, K8410, 18 h, 35° C., read-out: MIC
Summary of the method: as §1

[9] = tested on: Staphylococcus epidermidis IO 83-58; details: IO8358, 18 hours, 35° C., read-out: MIC
Summary of the method: as §1

[10] = tested on: Escherichia coli NAR 311; details: NAR311, 18 hours, 35° C., read-out: MIC
Summary of the method: as §1

[11] = tested on: Staphylococcus epidermidis CMC 83-135; details: CMC83135, 18 hours, 35° C., read-out: MIC
Summary of the method: as §1

[12] = tested on: Escherichia coli PRNT 311; details: PRNT311, 18 hours, 35° C., read-out: MIC
Summary of the method: as §1

[13] = tested on: Staphylococcus aureus Smith; details: Staphylococcus aureus, 18 h, 35° C., read-out: MIC
Summary of the method: as §1

[14] = tested on: Pseudomonas aeruginosa LL-1244; details: Pseudomonas aeruginosa, LL1244, 18 h, 35° C., read-out: MIC
Summary of the method: as §1

[15] = tested on: Staphylococcus Spp saprophiticus VGH 84-50; details: 18 hours, 35° C., read-out: MIC
Summary of the method: as §1

[16] = tested on: Staphylococcus aureus CMC 83-127; details: Staphylococcus aureus, CMC83127, 18 h, 35° C., read-out: MIC
Summary of the method: as §1

[17] = tested on: Klebsiella pneumoniae AD; details: Klebsiella pneumoniae, 18 h, 35° C., read-out: MIC
Summary of the method: as §1

[18] = tested on: Staphylococcus epidermidis VGH 84-40; details: VGH8440, 18 hours, 35° C., read-out: MIC
Summary of the method: as §1

[19] = tested on: Staphylococcus aureus VGH 84-45; details: Staphylococcus aureus, VGH8445, 18 h, 35° C., read-out: MIC
Summary of the method: as §1

[20] = tested on: Escherichia coli ATCC 25922; details: Escherichia coli, ATCC25922, 18 h, 35° C., read-out: MIC
Summary of the method: as §1

[21] = tested on: Staphylococcus aureus CMC 83-128; details: CMC83128, 18 hours, 35° C., read-out: MIC
Summary of the method: as §1

[22] = tested on: Escherichia coli CMC 84-11; details: Escherichia coli, CMC8411, 18 h, 35° C., read-out: MIC
Summary of the method: as §1

[23] = tested on: Acinetobacter calcoaceticus MOR 84-43; details: MOR8443, 18 hours, 35° C., read-out: MIC
Summary of the method: as §1

[24] = tested on: Staphylococcus aureus ATTC 29213; details: Staphylococcus aureus, ATTC29213, 18 h, 35° C., read-out: MIC
Summary of the method: as §1

[25] = tested on: Streptococcus faecalis VGH 84-65; details: Enterococcus faecalis, VGH8465, 18 h, 35° C., read-out: MIC
Summary of the method: as §1

[26] = tested on: Klebsiella oxytoca MOR 84-28; details: MOR8428, 18 hours, 35° C.
Summary of the method: as §1

[27] = tested on: Enterobacter cloacae VGH 84-37; details: Enterobacter cloacae, VGH8437, 18 h, 35° C., read-out: MIC
Summary of the method: as §1

[28] = tested on: Escherichia coli CMC 84-16; details: Escherichia coli, CMC8416, 18 h, 35° C., read-out: MIC
Summary of the method: as §1

[29] = tested on: Serratia marcescens F 0-35; details: Serratia marcescens, F035, 18 h, 35° C., read-out: MIC
Summary of the method: as §1

[30] = tested on: Pseudomonas aeruginosa VGH 84-4; details: Pseudomonas aeruginosa, VGH844, 18 h, 35° C., read-out: MIC
Summary of the method: as §1

[31] = tested on: Enterobacter aerogenes VGH 84-36; details: Klebsiella aerogenes, VGH8436, 18 hours, 35° C., read-out: MIC
Summary of the method: as §1

Row | SMILES | MIC [1] [mg/L] | MIC [2] [mg/L] | MIC [3] [mg/L] | MIC [4] [mg/L] | MIC [5] [mg/L] | MIC [6] [mg/L] | MIC [7] [mg/L] | MIC [8] [mg/L] | MIC [9] [mg/L] | MIC [10] [mg/L] | MIC [11] [mg/L] | MIC [12] [mg/L] | MIC [13] [mg/L] | MIC [14] [mg/L] | MIC [15] [mg/L] | MIC [16] [mg/L] | MIC [17] [mg/L] | MIC [18] [mg/L] | MIC [19] [mg/L] | MIC [20] [mg/L] | other results
1 | CCn1cc(C(=O)O)c(=O)c2cc(F)c(N3CCNC(CNC)C3)cc21.Cl.Cl (centres unmarked) [Example 53, 1-Ethyl-6-fluoro-1,4-dihydro-7-[3-[(methylamino)methyl]-1-piperazinyl]-4-oxo-3-quinolinecarboxylic acid, dihydrochloride] | 8 | 32 | 32 | 32 | 32 | 32 | 128 | 8 | 4 | > 128 | 2 | 16 | 1 | > 128 | 4 | 1 | 64 | 4 | 16 | 16 | MIC [21]: 2 mg/L; MIC [22]: 8 mg/L; MIC [23]: > 128 mg/L; MIC [24]: 16 mg/L; MIC [25]: 32 mg/L; MIC [26]: > 128 mg/L; MIC [27]: 32 mg/L; MIC [28]: 4 mg/L; MIC [29]: 64 mg/L; MIC [30]: > 128 mg/L; MIC [31]: 16 mg/L
2 | CCn1cc(C(=O)O)c(=O)c2cc(F)c(N3CCN(C)C(c4sc5ccccc5c4C)C3)cc21 (centres unmarked) [Example 54, 1-Ethyl-6-fluoro-1,4-dihydro-7-[4-methyl-3-(3-methyl-benzo[b]thien-2-yl)-1-oiperazinyl]-4-oxo-3-quinolinecarboxylic acid] | > 256 | > 256 | > 256 | > 256 | > 256 | > 256 | > 256 | > 256 | > 256 | > 256 | > 256 | > 256 | 64 (≈ 133 µM) | > 256 | > 256 | 32 (≈ 66.7 µM) | > 256 | > 256 | 256 (≈ 534 µM) | > 256 | MIC [21]: 64 mg/L (≈ 133 µM); MIC [22]: > 256 mg/L; MIC [23]: > 256 mg/L; MIC [24]: 256 mg/L (≈ 534 µM); MIC [25]: > 256 mg/L; MIC [26]: > 256 mg/L; MIC [27]: > 256 mg/L; MIC [28]: > 256 mg/L; MIC [29]: > 256 mg/L; MIC [30]: > 256 mg/L; MIC [31]: > 256 mg/L
